This is an account of results in publication PMC4464186 (EXCLI Journal, 2014).

The subject of series [1] is metrazol-induced convulsion. The note with it: metrazol-induced convulsion model, ref Sridhar et al., 2002, cited from earlier work.
The subject of series [2] is Albino mice. In kind it is in vivo. The note with it: 100 mg/kg i.p.; with respect to control.
In series [3] the test system is mice. Type of series: in vivo. The settings on record: rotarod; doses up to 300 mg/kg; 0.5 and 4.0 h. In general terms: Falling from the rotarod earlier than controls is read as motor impairment.

For orientation: ED50 means the dose at which the effect has come halfway, by size or by number of responders.

For `Cc1ccc2c(c1)C(=Nc1ccc(Cl)cc1)C(=O)N2` [3-(4-Chlorophenylimino)-5-methyl-1,3-dihydro-indol-2-one], the protection in series [1] (at 100 mg kg^-1) was 87%. Besides, the median effective dose (ED50) in series [1] was 53.61 mg/kg. `O=c1nc2[nH]c3ccc(Cl)cc3c2n[nH]1` [5e, 8-chloro-2H-[1,2,4]triazino[5,6-b]indol-3(5H)-one]: the “% Increased of immobility” value in series [2] was 54.39%. Further, the “neurotoxicity (motor impairment), in words” value in series [3] is given as “no motor impairment effect”. As for `O=c1nc2[nH]c3c(Br)cc(Br)cc3c2n[nH]1` [5i, 6,8-dibromo-2H-[1,2,4]triazino[5,6-b]indol-3(5H)-one], the “% Increased of immobility” value in series [2] is on record as 37.68%.

For the compound `Cn1c2nc(=O)[nH]nc2c2cc(Br)cc(Br)c21` [5k, 6,8-dibromo-5-methyl-2H-[1,2,4]triazino[5,6-b]indol-3(5H)-one], the “% Increased of immobility” value in series [2] was determined as 45.96%. The same measure, in the same setting: for `NC(=O)N1c2ccccc2C=Cc2ccccc21` [Carbamazepine, reference compound] the value was 58.63%.
